From ChEMBL document CHEMBL1149874 (Bioorg Med Chem, 2008)
Activity calls are given as the source filed them. The calls are words filed in the database; no cut-off is given here. Residues, ends and D or L forms follow the SMILES beside them.

Experiments:
[1] = target: T1, Mu-type opioid receptor (Homo sapiens, UniProt P35372); assay: Displacement of [3H]DAMGO from mu opioid receptor in human SH-SY5Y cells; type: cell-based
[2] = target: T1, Mu-type opioid receptor; assay: Decrease in internalization of mu opioid receptor in human SH-SY5Y cells; type: cell-based
[3] = target: T1, Mu-type opioid receptor; assay: Increase in internalization of mu opioid receptor in human SH-SY5Y cells; type: cell-based
[4] = target: T1, Mu-type opioid receptor; assay: Agonist activity at mu opioid receptor assessed as inhibition of forskolin-induced cAMP production in human SH-SY5Y cells pretreated for 24 hrs with DMEM medium after 15 mins; type: functional, cell-based
[5] = target: T1, Mu-type opioid receptor; assay: Agonist activity at mu opioid receptor assessed as inhibition of forskolin-induced cAMP production in human SH-SY5Y cells pretreated for 24 hrs with excess ligand after 15 mins; type: functional, cell-based

T1 sequence (P35372 whole entry): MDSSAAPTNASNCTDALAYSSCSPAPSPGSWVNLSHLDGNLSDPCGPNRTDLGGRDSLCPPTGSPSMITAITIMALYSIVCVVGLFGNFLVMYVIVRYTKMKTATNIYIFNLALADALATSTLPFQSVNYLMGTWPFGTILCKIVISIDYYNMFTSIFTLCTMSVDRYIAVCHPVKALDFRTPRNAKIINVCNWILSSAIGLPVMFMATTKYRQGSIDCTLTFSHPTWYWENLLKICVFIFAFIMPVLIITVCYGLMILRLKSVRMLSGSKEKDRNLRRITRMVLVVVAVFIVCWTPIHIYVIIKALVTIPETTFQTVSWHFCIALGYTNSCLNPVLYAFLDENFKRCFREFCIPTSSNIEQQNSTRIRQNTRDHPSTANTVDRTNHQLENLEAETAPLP

Compound: C[C@H](NC(=O)[C@@H](N)Cc1ccc(O)cc1)C(=O)N[C@@H](Cc1c[nH]c2ccccc12)C(=O)N[C@@H](Cc1ccccc1)C(N)=O (H-YAWF-NH2)
- Ki [1]: 3190 nM

Compound: C[C@H](NC(=O)[C@H](Cc1c[nH]c2ccccc12)NC(=O)[C@@H]1CCCN1C(=O)[C@@H](N)Cc1ccc(O)cc1)C(N)=O (H-YPWA-NH2)
- Ki [1]: 72.7 nM
- Activity [2]: Active

Compound: C[C@H](NC(=O)[C@H](C)NC(=O)[C@@H]1CCCN1C(=O)[C@@H](N)Cc1ccc(O)cc1)C(N)=O (H-YPAA-NH2)
- Ki [1]: 705 nM
- Activity [2]: Active

Compound: C[C@H](NC(=O)[C@@H]1CCCN1C(=O)[C@@H](N)Cc1ccc(O)cc1)C(=O)N[C@@H](Cc1ccccc1)C(N)=O (H-YPAF-NH2)
- Ki [1]: 226 nM
- Activity [2]: Active

Compound: H-YGGWL-NH2
- Ki [1]: 12.1 nM
- Activity [3]: 22%
- IC50 [4]: 27.5 nM
- IC50 [5]: 49.2 nM

Compound: H-YGWFL-NH2
- Ki [1]: 113 nM
- Activity [3]: 40%
- IC50 [4]: 126 nM
- IC50 [5]: 132 nM
